Several values for one entry are separate records, joined by “and”; a condition that tells them apart may be missing. Equal values may be shown once. Read-outs that look alike come from different tables or passages of the source.
Key:
[1] = test system: direct seeded rice
[2] = test system: CYPDI; assay: Postemergence herbicidal safening in direct seeded rice, visual injury on weed; format: in vivo; details: alone, after 3 weeks
[3] = test system: SEBEX; assay: as above; format: in vivo; details: alone, after 3 weeks
[4] = test system: ECHCO; assay: as above; format: in vivo; details: alone, after 3 weeks
[5] = test system: weed test plant species; assay: Herbicidal safening in transplanted paddy rice, visual injury on weeds; format: in vivo; details: after 3 weeks; for Visual Injury (%) CYPDI Obs: Cyperus difformis; for Visual Injury (%) MOOVA Obs: Monochoria vaginalis; for Visual Injury (%) SCPJU Obs: Scirpus juncoides
Procedure: (§1) Evaluation of Herbicidal Safening in Transplanted Paddy Rice
(§2) The prepared mud was dispensed in 250 mL aliquots into 480 mL non-perforated plastic pots with a surface area of 91.6 cm^2 leaving a headspace of 3 cm in each pot. Rice seeds were planted in Sun Gro MetroMix 306 planting mixture, which typically has a pH of 6.0 to 6.8 and an organic matter content of about 30 percent, in plastic plug trays. Seedlings at the second or third leaf stage of growth were transplanted into 650 mL of mud contained in 960 mL non-perforated plastic pots with a surface area of 91.6 cm^2 four days prior to herbicide application. The paddy was created by filling the 3 cm headspace of the pots with water. […] Nutrients were added as Osmocote (17:6:10, Nitrogen:Phosphorus:Potassium (N:P:K)+minor nutrients) at 2 grams (g) per cup.
(§3) For technical grade compounds and safeners, a weighed amount, determined by the highest rate to be tested, was placed in an individual 120 mL glass vial and was dissolved in 20 mL of acetone to obtain concentrated stock solutions. […] The concentrated stock solutions obtained were diluted with 20 mL of acetone. Applications were made by injecting an appropriate amount of the stock solution into the aqueous layer of the paddy. […] All treated plant material received the same concentration of acetone and crop oil concentrate.

[6] = test system: ORYSA (rice); assay: Postemergence herbicidal safening in direct seeded rice, visual injury; details: for Visual Injury (%) ‘Lemont’ ORYSA Obs / ORYSA Visual Injury (%) ‘Cheniere’ Obs / ORYSA Visual Injury (%) ‘Clearfield’ Obs / ORYSA Visual Injury (%) ‘Cocodrie’ Obs / ORYSA Visual Injury (%) ‘Lemont’ Obs / ORYSA Visual Injury (%) ‘M202’ Obs / ORYSA Visual Injury (%) ‘Wells’ Obs: alone; for ORYSA Visual Injury (%) ‘Cheniere’ Obs / ORYSA Visual Injury (%) ‘Clearfield’ Obs / ORYSA Visual Injury (%) ‘Cocodrie’ Obs / ORYSA Visual Injury (%) ‘Lemont’ Obs / ORYSA Visual Injury (%) ‘M202’ Obs / ORYSA Visual Injury (%) ‘Wells’ Obs: after 3 weeks (Table 14)
Excerpt: A=observed efficacy of active ingredient A at the same concentration as used in the mixture.
B=observed efficacy of active ingredient B at the same concentration as used in the mixture.

[7] = test system: transplanted paddy rice; assay: Safening activity of herbicide mixtures in transplanted paddy rice; format: in vivo, Oryza sativa
Procedure: as §2, §3
Forms of compound 1 were applied on an acid equivalent basis.

[8] = test system: transplanted paddy rice; assay: Herbicidal safening in transplanted paddy rice, visual injury; format: in vivo, Oryza sativa; details: after 3 weeks
Procedure: as §1, §2, §3

With COc1cc(OC)nc(Oc2cccc(Oc3nc(OC)cc(OC)n3)c2C(=O)O)n1 [Bispyribac sodium] as the compound, how does the “ORYSA Visual Injury (%) ‘M202’ Obs” value ([1]; partner 28 g/ha alone) read?
The value was 15%.

What about the “ORYSA Visual Injury (%) ‘Wells’ Obs” value ([1]; partner 28 g/ha alone) of the same compound?
Its value is 20%.

CCOC(=O)C(Cl)Cc1cc(-n2nc(C)n(C(F)F)c2=O)c(F)cc1Cl (stereo not drawn) [Carfentrazone-ethyl] was tested. Which “ORYSA Visual Injury (%) ‘M202’ Obs” value ([1]; partner 56 g/ha alone) did it give?
The value was 20%.

What about the “ORYSA Visual Injury (%) ‘Wells’ Obs” value ([1]; partner 56 g/ha alone) of the same compound?
Its value is 25%.

And the “ORYSA Visual Injury (%) ‘M202’ Obs” value ([1]; partner 112 g/ha alone)?
The value was 20%.

What about the “ORYSA Visual Injury (%) ‘Wells’ Obs” value ([1]; partner 112 g/ha alone) of the same compound?
The value was 35%.

For CCCCCC(C)OC(=O)COc1ccc(Cl)c2cccnc12 (stereo not drawn) [Cloquintocet-mexyl], which “Visual Injury (%) CYPDI Obs” value ([2]; 35 g ai/ha) is on record?
Its value is 0%.

What about the “Visual Injury (%) CYPDI Obs” value ([2]; 70 g ai/ha) of the same compound?
The value was 0%.

And the “Visual Injury (%) CYPDI Obs” value ([2]; 140 g ai/ha)?
Its value is 0%.

What about the “Visual Injury (%) CYPDI Obs” value ([2]; 280 g ae/ha) of the same compound?
Its value is 0%.

And the “Visual Injury (%) CYPDI Obs” value ([2]; 280 g ai/ha)?
Its value is 0%.

What about the “Visual Injury (%) SEBEX Obs” value ([3]; 35 g ai/ha) of the same compound?
Its value is 0%.

And the “Visual Injury (%) SEBEX Obs” value ([3]; 70 g ai/ha)?
The value was 0%.

What about the “Visual Injury (%) SEBEX Obs” value ([3]; 140 g ai/ha) of the same compound?
Its value is 0%.

And the “Visual Injury (%) SEBEX Obs” value ([3]; 280 g ae/ha)?
Its value is 0%.

What about the “Visual Injury (%) SEBEX Obs” value ([3]; 280 g ai/ha) of the same compound?
Its value is 0%.

And the “Visual Injury (%) ECHCO Obs” value ([4]; 35 g ai/ha)?
Its value is 0%.

And the “Visual Injury (%) ECHCO Obs” value ([4]; 70 g ai/ha)?
The value was 0%.

What about the “Visual Injury (%) ECHCO Obs” value ([4]; 140 g ai/ha) of the same compound?
Its value is 0%.

What about the “Visual Injury (%) ECHCO Obs” value ([4]; 280 g ae/ha) of the same compound?
Its value is 0%.

And the “Visual Injury (%) ECHCO Obs” value ([4]; 280 g ai/ha)?
Its value is 0%.

What about the “Visual Injury (%) CYPDI Obs” value ([5]; safener 70 g ai/ha alone) of the same compound?
The value was 0%.

And the “Visual Injury (%) CYPDI Obs” value ([5]; safener 140 g ai/ha alone)?
Its value is 0%.

And the “Visual Injury (%) CYPDI Obs” value ([5]; safener 280 g ai/ha alone)?
Its value is 0%.

And the “Visual Injury (%) MOOVA Obs” value ([5]; safener 70 g ai/ha alone)?
The value was 0%.

What about the “Visual Injury (%) MOOVA Obs” value ([5]; safener 140 g ai/ha alone) of the same compound?
Its value is 0%.

What about the “Visual Injury (%) MOOVA Obs” value ([5]; safener 280 g ai/ha alone) of the same compound?
The value was 0%.

What about the “‘M202’ ORYSA Visual Injury (%) Obs” value ([6]; Safener Alone, 560 g ai/ha, after 3 weeks) of the same compound?
The value was 3.3%.

What about the “Visual Injury (%) ‘Lemont’ ORYSA Obs” value ([6]; 35 g ai/ha, after 3 weeks) of the same compound?
The value was 0%.

What about the “Visual Injury (%) ‘Lemont’ ORYSA Obs” value ([6]; 70 g ai/ha, after 3 weeks) of the same compound?
The value was 0%.

What about the “Visual Injury (%) ‘Lemont’ ORYSA Obs” value ([6]; 140 g ai/ha, after 3 weeks) of the same compound?
Its value is 0%.

What about the “ORYSA Visual Injury (%) ‘Cheniere’ Obs” value ([6]; 140 g ai/ha) of the same compound?
The value was 0%.

And the “ORYSA Visual Injury (%) ‘Clearfield’ Obs” value ([6]; 140 g ai/ha)?
Its value is 0%.

What about the “ORYSA Visual Injury (%) ‘Cocodrie’ Obs” value ([6]; 140 g ai/ha) of the same compound?
The value was 0%.

What about the “ORYSA Visual Injury (%) ‘Lemont’ Obs” value ([6]; 140 g ai/ha) of the same compound?
Its value is 0%.

What about the “ORYSA Visual Injury (%) ‘M202’ Obs” value ([6]; 140 g ai/ha) of the same compound?
The value was 0%.

What about the “ORYSA Visual Injury (%) ‘Wells’ Obs” value ([6]; 140 g ai/ha) of the same compound?
Its value is 0%.

And the “Visual Injury (%) ‘Lemont’ ORYSA Obs” value ([6]; 280 g ae/ha, after 3 weeks)?
The value was 0%.

And the “Visual Injury (%) ‘Lemont’ ORYSA Obs” value ([6]; 280 g ai/ha, after 3 weeks)?
Its value is 0%.

And the “ORYSA Visual Injury (%) ‘Cheniere’ Obs” value ([6]; 280 g ai/ha)?
Its value is 0%.

And the “ORYSA Visual Injury (%) ‘Clearfield’ Obs” value ([6]; 280 g ai/ha)?
The value was 0%.

What about the “ORYSA Visual Injury (%) ‘Cocodrie’ Obs” value ([6]; 280 g ai/ha) of the same compound?
Its value is 0%.

What about the “ORYSA Visual Injury (%) ‘Lemont’ Obs” value ([6]; 280 g ai/ha) of the same compound?
Its value is 0%.

And the “ORYSA Visual Injury (%) ‘M202’ Obs” value ([6]; 280 g ai/ha)?
The value was 0%.

And the “ORYSA Visual Injury (%) ‘Wells’ Obs” value ([6]; 280 g ai/ha)?
Its value is 0%.

With COc1c(Cl)ccc(-c2cc(N)c(Cl)c(C(=O)[O-])n2)c1F.[Na+] [Compound 1 Na + salt] as the compound, how does the “Visual Injury (%) CYPDI Obs” value ([2]; 70 g ai/ha) read?
Its value is 95%.

And the “Visual Injury (%) SEBEX Obs” value ([3]; 70 g ai/ha)?
Its value is 100%.

And the “Visual Injury (%) ECHCO Obs” value ([4]; 70 g ai/ha)?
Its value is 95%.

And the “Visual Injury (%) CYPDI Obs” value ([5]; herbicide 70 g ai/ha alone)?
Its value is 100%.

What about the “Visual Injury (%) MOOVA Obs” value ([5]; herbicide 70 g ai/ha alone) of the same compound?
The value was 100%.

What about the “Visual Injury (%) ‘Lemont’ ORYSA Obs” value ([6]; 70 g ai/ha, after 3 weeks) of the same compound?
The value was 50%.

CCN(CC)CC.COc1c(Cl)ccc(-c2cc(N)c(Cl)c(C(=O)O)n2)c1F [Compound 1 TEA Salt] was tested. Which “Visual Injury (%) ‘M202’ ORYSA Obs” value ([7]; compound 35 g/ha alone) did it give?
The value was 20%.

What about the “Visual Injury (%) ‘M202’ ORYSA Obs” value ([7]; compound 70 g/ha alone) of the same compound?
Its value is 35% and 50%.

And the “Visual Injury (%) ‘M202’ ORYSA Obs” value ([8]; herbicide 70 g ae/ha alone)?
Its value is 65%.

What about the “‘M202’ ORYSA Visual Injury (%) Obs” value ([8]; herbicide 70 g ae/ha alone) of the same compound?
Its value is 60%.

What about the “Visual Injury (%) ‘M202’ ORYSA Obs” value ([8]; herbicide 140 g ae/ha alone) of the same compound?
Its value is 70%.

And the “‘M202’ ORYSA Visual Injury (%) Obs” value ([8]; herbicide 140 g ae/ha alone)?
The value was 85%.

What about the “Visual Injury (%) SCPJU Obs” value ([5]; herbicide 70 g ae/ha alone) of the same compound?
The value was 100%.

What about the “Visual Injury (%) SCPJU Obs” value ([5]; herbicide 140 g ae/ha alone) of the same compound?
The value was 100%.

And the “Visual Injury (%) ECHCG Obs” value ([5]; herbicide 70 g ae/ha alone)?
The value was 99%.

What about the “Visual Injury (%) ECHCG Obs” value ([5]; herbicide 140 g ae/ha alone) of the same compound?
Its value is 100%.

Which results are given for COc1c(Cl)ccc(-c2cc(N)c(Cl)c(C(=O)[O-])n2)c1Cl.[Na+] [Compound 2 Na + salt]?
Visual Injury (%) CYPDI Obs ([2]; 70 g ai/ha): 100%; Visual Injury (%) SEBEX Obs ([3]; 70 g ai/ha): 100%; Visual Injury (%) ECHCO Obs ([4]; 70 g ai/ha): 90%; Visual Injury (%) CYPDI Obs ([5]; herbicide 70 g ai/ha alone): 100%; Visual Injury (%) MOOVA Obs ([5]; herbicide 70 g ai/ha alone): 100%; Visual Injury (%) ‘Lemont’ ORYSA Obs ([6]; 70 g ai/ha, after 3 weeks): 15%

What does the source list for CCCCOC(=O)[C@@H](C)Oc1ccc(Oc2ccc(C#N)cc2F)cc1 [Cyhalofop-butyl]?
Visual Injury (%) ‘M202’ ORYSA Obs ([7]; partner 90 g/ha alone): 0%; Visual Injury (%) ‘M202’ ORYSA Obs ([7]; partner 180 g/ha alone): 0%

Reference: patent publication US8916498B2, “Safening 6-(trisubstituted phenyl)-4-amino-2-pyridinecarboxylate herbicide injury on direct seeded and transplanted paddy rice” (priority 2008, dated 2014)
